Test results reported in patent publication US20230218604A1, “PPARy AGONIST FOR TREATMENT OF PROGRESSIVE [sequence] PALSY” (Coherus Biosciences, Inc., priority 2022, published 2023).
Values joined by “and” are separate entries in the source; they are usually repeats but may differ in a detail not shown here. Equal entries are not always repeated. “Also recorded” adds a separate entry of the source.

Legend:
HbA1c [1] = experiment: 24-week randomized, double-blind, placebo-controlled study in type 2 diabetes: HbA1c levels; format: in vivo, human; conditions: 24 weeks
adiponectin [2] = experiment: 14-day study of serum adiponectin levels in healthy subjects; format: in vivo, human
Experimental: A study was conducted to determine the effect of INT131 on serum adiponectin levels. Thirty healthy subjects were randomly selected to receive either placebo, 0.1 mg INT131, 1 mg INT131 or 4 mg INT131 daily for 14 days. To measure adiponectin levels blood was drawn at Days 1, 4, 8 and 14.

HbA1c [3] = conditions: DePaoli et al. Diabetes Care 2014; cited from earlier work
[4] = RRMS study: monthly contrast MRI, cumulative CE lesions and new/enlarged T2 lesions; format: in vivo, human; conditions: for Reduction of CE lesion burden vs. placebo: 6 months; for Cumulative CE lesions over 6 months: complete case analysis
Experimental: (§1) 227 treatment-naive adult subjects (mean age 31 [range 18-50]; 65% female) were randomized into one of three arms: oral CHS-131 at 3 mg (n=76); oral CHS-131 at 1 mg (n=76); placebo (n=75), at 21 sites in Russia. 97% completed Part 1. Inclusion criteria: Relapsing Remitting Multiple Sclerosis (RRMS) for ≤3 years, ≥1 gadolinium-positive lesion within 1-year of enrollment, and an EDSS ≤ 6 at screening. The patients underwent monthly MRI examinations with contrast to identify new inflammatory lesions. All MRIs were read blinded at the Buffalo Neuroimaging Center (Buffalo, NY). In addition to CE lesions the images were scored for cumulative new/enlarged T2 lesions, and serial cortical and whole brain volumetric analysis.

[5] = RRMS study: serial cortical and whole brain volumetric MRI analysis; format: in vivo, human; conditions: 3 mg daily, 6 months
Experimental: as §1

adiponectin [6] = experiment: 24-week randomized, double-blind, placebo-controlled study in type 2 diabetes: serum adiponectin levels; format: in vivo, human; conditions: for Mean Adiponectin, Week 24 / Mean Change in adiponectin from baseline (Week 0) to Week 24 / Mean Adiponectin, Week 0: (SD); for Mean Change in adiponectin from baseline (Week 0) to Week 24: LOCF; for Mean Adiponectin, Week 0: baseline, type 2 diabetes subjects
Experimental: A randomized, double-blind, placebo-controlled, 24-week study was conducted in which adiponectin levels were measured. […] 367 subjects with type 2 diabetes (TD2)—a disease in which patient adiponectin levels are reduced—were randomly assigned to receive either 0.5, 1, 2 or 3 milligrams (“mg”) of INT131 besylate, 45 mg of pioglitazone or placebo daily for 24 weeks. To measure adiponectin levels blood was drawn at Weeks 0, 2, 6, 12 and 24. At baseline (Week 0) mean adiponectin levels were 1.94 micrograms per milliliter (“µg/mL”). The mean adiponectin levels at baseline and Week 24, and the mean change in adiponectin levels from baseline (Week 0) to Week 24 are disclosed in Table 1, below. The standard deviation for samples tested in each group is listed in (parenthesis). Mean baseline adiponectin values were similar for the treatment groups.

[7] = subjects taking INT131 vs those taking pioglitazone; DePaoli et al. 2014; cited from earlier work
[8] = in vivo; cited from earlier work

## O=S(=O)(Nc1cc(Cl)c(Oc2cnc3ccccc3c2)c(Cl)c1)c1ccc(Cl)cc1Cl [INT131]
HbA1c [1]; 1, 2 and 3 mg doses of INT131 daily
  Reduction of HbA1c levels as compared to placebo: statistically significant reduction
HbA1c [1]; 2 and 3 mg doses of INT131 daily
  Reduction of HbA1c levels compared with 45 mg of pioglitazone: at least as well as 45 mg of pioglitazone
Adiponectin [2]; 0.1 mg INT131 daily for 14 days
  Change in serum adiponectin levels, Day 1 to Day 14 and over placebo: no significant change
Adiponectin [2]; 1 mg or 4 mg INT131 daily for 14 days
  Change in serum adiponectin levels over placebo and from Day 1 to Day 14: significant change
HbA1c [3]
  Efficacy in reducing HbA1c levels versus 45 mg of pioglitazone: equally efficacious
[4]; 1 mg oral
  Cumulative CE lesions over 6 months, LSMean: 5.15
  Cumulative CE lesions over 6 months: 7.6
[4]; 1 mg oral, p=ns
  Reduction of CE lesion burden vs. placebo: 21%
[4]; 1 mg, p=ns
  Reduction of new/enlarged T2 lesions compared to placebo: 14%
[4]; 3 mg daily oral
  Cumulative CE lesions over 6 months, LSMean: 3.10
  Cumulative CE lesions over 6 months: 4.2 lesions
[4]; 3 mg daily oral, p=0.003
  Reduction of CE lesion burden vs. placebo: 52%
[4]; 3 mg, p=0.0767
  Reduction of new/enlarged T2 lesions compared to placebo: 30%
[5]
  Less cortical volume loss compared to placebo: 34.2%
  Less whole brain volume loss compared to placebo: 50%
Adiponectin [6]; 0.5 mg INT131 daily for 24 weeks
  Mean Adiponectin, Week 24: 2.28 (1.540) µg/mL
Adiponectin [6]; 0.5 mg INT131 daily
  Mean Change in adiponectin from baseline (Week 0) to Week 24: 0.56 µg/mL and 0.56 (0.906) µg/mL
Adiponectin [6]; 0.5 mg INT131 group
  Mean Adiponectin, Week 0: 1.73 (1.190) µg/mL
Adiponectin [6]; 0.5 mg, 1 mg and 3 mg doses of INT131, p≤0.0408
  Adiponectin levels, treatment comparison with pioglitazone 45 mg: statistically significant
Adiponectin [6]; 1 mg INT131 daily for 24 weeks
  Mean Adiponectin, Week 24: 3.15 (2.533) µg/mL
Adiponectin [6]; 1 mg INT131 daily
  Mean Change in adiponectin from baseline (Week 0) to Week 24: 1.28 µg/mL and 1.28 (1.882) µg/mL
Adiponectin [6]; 1 mg INT131 group
  Mean Adiponectin, Week 0: 1.87 (1.217) µg/mL
Adiponectin [6]; 1 mg, 2 mg and 3 mg doses of INT131, p≤0.0109
  Adiponectin levels, treatment comparison with placebo: statistically significant increase
Adiponectin [6]; 2 mg INT131 daily for 24 weeks
  Mean Adiponectin, Week 24: 5.14 (3.650) µg/mL
Adiponectin [6]; 2 mg INT131 daily
  Mean Change in adiponectin from baseline (Week 0) to Week 24: 3.27 µg/mL and 3.27 (3.002) µg/mL
Adiponectin [6]; 2 mg INT131 group
  Mean Adiponectin, Week 0: 1.87 (1.098) µg/mL
Adiponectin [6]; 3 mg INT131 daily for 24 weeks
  Mean Adiponectin, Week 24: 5.83 (4.826) µg/mL
Adiponectin [6]; 3 mg INT131 daily
  Mean Change in adiponectin from baseline (Week 0) to Week 24: 3.83 µg/mL and 3.83 (4.313) µg/mL
Adiponectin [6]; 3 mg INT131 group
  Mean Adiponectin, Week 0: 2.00 (1.215) µg/mL
[7]
  Side effects versus pioglitazone: less edema, weight gain, and hemodilution
[8]
  Crossing of the blood brain barrier: more readily than other PPARγ agonists; also recorded: readily crosses the blood brain barrier

## CCc1ccc(CCOc2ccc(CC3SC(=O)NC3=O)cc2)nc1 (centres unmarked) [pioglitazone, reference compound]
Adiponectin [6]; 45 mg pioglitazone daily for 24 weeks
  Mean Adiponectin, Week 24: 5.28 (3.222) µg/mL
Adiponectin [6]; 45 mg pioglitazone daily
  Mean Change in adiponectin from baseline (Week 0) to Week 24: 2.96 µg/mL
Adiponectin [6]; 45 mg pioglitazone daily, listed as Pioglitazone
  Mean Change in adiponectin from baseline (Week 0) to Week 24: 2.96 (2.618) µg/mL
Adiponectin [6]; 45 mg pioglitazone group
  Mean Adiponectin, Week 0: 2.32 (2.185) µg/mL
